How the values were obtained:
HeLa cells = conditions: read-out: cytotoxic IC50 in HeLa cells; cited from earlier work
KDM4A = target: T1, KDM4A (Homo sapiens, UniProt O75164); test: Formaldehyde dehydrogenase-coupled demethylase assay, KDM4A; format: biochemical; set-up: Demethylase Residual Activity (%): concentration or dose not given beside the values; conditions: for Demethylase Residual Activity (%): FDH-coupled assay
T1 construct: Human KDM4B 1-348 and KDM4A 1-347 were PCR amplified; His6 (N); made in house; host or cells: Escherichia coli BL21 (DE3)
T1 sequence (O75164 1-347): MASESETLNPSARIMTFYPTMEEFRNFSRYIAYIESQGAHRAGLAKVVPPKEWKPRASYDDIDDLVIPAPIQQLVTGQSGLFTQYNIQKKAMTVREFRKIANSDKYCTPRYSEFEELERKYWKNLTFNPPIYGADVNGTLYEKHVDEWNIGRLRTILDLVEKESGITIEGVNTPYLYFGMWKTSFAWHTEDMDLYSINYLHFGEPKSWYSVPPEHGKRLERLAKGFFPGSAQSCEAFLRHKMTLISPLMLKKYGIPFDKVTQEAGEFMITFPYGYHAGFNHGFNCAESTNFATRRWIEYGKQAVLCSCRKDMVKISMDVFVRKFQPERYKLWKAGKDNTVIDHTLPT

KDM4B = target: T2, KDM4B (Homo sapiens, UniProt O94953); test: Formaldehyde dehydrogenase-coupled demethylase assay, KDM4B; format: biochemical; set-up: concentration or dose not given beside the values; conditions: FDH-coupled assay
T2 construct: Human KDM4B 1-348 and KDM4A 1-347 were PCR amplified; His6 (N); made in house; host or cells: Escherichia coli BL21 (DE3)
T2 sequence (O94953 1-348): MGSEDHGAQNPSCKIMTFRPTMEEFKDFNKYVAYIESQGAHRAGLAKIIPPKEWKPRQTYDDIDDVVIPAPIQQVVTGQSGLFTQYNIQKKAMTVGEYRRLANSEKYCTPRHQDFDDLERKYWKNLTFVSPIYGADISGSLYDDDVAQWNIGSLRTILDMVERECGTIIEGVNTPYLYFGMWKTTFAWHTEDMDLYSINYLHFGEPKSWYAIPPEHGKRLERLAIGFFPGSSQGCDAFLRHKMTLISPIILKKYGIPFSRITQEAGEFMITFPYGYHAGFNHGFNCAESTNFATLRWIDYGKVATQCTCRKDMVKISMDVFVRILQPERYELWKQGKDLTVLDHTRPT

[1] = target: T3, FDH (formaldehyde dehydrogenase) (Pseudomonas putida, UniProt P46154); test: FDH residual activity (control for the coupling enzyme); format: biochemical; set-up: concentration or dose not given beside the values
T3 construct: purchased Sigma
T3 sequence (P46154 1-399): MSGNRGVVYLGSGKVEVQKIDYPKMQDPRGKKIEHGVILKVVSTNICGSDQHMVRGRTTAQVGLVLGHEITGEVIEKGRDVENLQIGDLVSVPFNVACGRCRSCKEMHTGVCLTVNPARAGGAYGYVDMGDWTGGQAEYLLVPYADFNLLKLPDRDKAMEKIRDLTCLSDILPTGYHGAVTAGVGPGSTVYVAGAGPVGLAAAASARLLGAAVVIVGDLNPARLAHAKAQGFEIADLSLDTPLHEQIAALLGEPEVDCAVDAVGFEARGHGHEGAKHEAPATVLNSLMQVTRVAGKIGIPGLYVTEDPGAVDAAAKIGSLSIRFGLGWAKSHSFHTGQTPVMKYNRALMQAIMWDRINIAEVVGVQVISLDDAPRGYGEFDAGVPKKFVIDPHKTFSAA

KDM4A/KDM4B [2] = test: KDM4A/KDM4B inhibitory assay, results stated in words; format: biochemical, human
Procedure: Formaldehyde dehydrogenase-coupled demethylase assay was used to determine the demethylase activity and select the potent inhibitors. All inhibitors were dissolved in dimethyl sulfoxide (DMSO) at various concentrations, and added to the mixture that the final DMSO concentration is 5%. The reagents for demethylase reactions were dissolved in HEPES buffer (50 mM, pH 7.5), with the exception of Fe(II) solutions, which were made using (NH4)2Fe(SO4)2 dissolved in 20 mM HCl to make 400 mM stock solution. All the reagents were stored at −30° C. FDH, NAD+, H-TKQTARK(Me3)[…]-OH (TR-15, H33-17K9me3, Kelowna), DMSO, and KDM4B were added first to 96-well black immune plate (SPL Life Science) and incubated together on ice for 15 min. Then the plate was put into FLUOStar OPTIMA ELISA reader (BMG LABTECH) with 37° C., and the reaction was started by adding ascorbic acid (ascorbate), Fe(II), and α-ketoglutarate (AKG) to final concentration of 50 mM HEPES, pH 7.5, 2 μM of KDM4B, 5% DMSO, 0.01 U FDH (Sigma), 1 mM NAD+, 1 mM 2-OG, 2 mM ascorbate, and 50 μM Fe(II), various concentration of H3K9me3 peptide, and the final volume was 50 μl. Each reaction was incubated at 37° C. for 30 min and the production of NADH would be detected by using the fluorescence Ex 360/Em 470. […]

in vitro = format: cell-based; conditions: human
Procedure: (§1) LNCaP cells are infected with lentivirus with control shRNA (control) and shKDM4A or shKDM4B as indicated (left panel). The qRT-PCR analysis is performed to evaluate the expression of KDM4s (right panel). […] LNCaP cells are treated with 1,5-bis[(E)-2-(3,4-dichlorophenyl) ethenyl]-2,4-dinitrobenzene for three days, and the viability is measured by viable cell count. SD is derived from biological triplicates. The level of H3K9me3 of 1,5-bis[(E)-2-(3,4-dichlorophenyl)ethenyl]-2,4-dinitrobenzene-treated cells (24 hr) is detected and quantified by AlphaView SA (Cell Biosciences Inc.). The level of H3K9me3 is shown by bar graph.
Primary PrEC cells were purchased from Clonetics (Walkersville, Md.) and cultured in serum-free prostate epithelial cell growth medium following the vendor's directions. Cell lines RWPE1, LNCaP (LNCaP-FGC), CWR22Rv1 (22Rv1), VCaP, DU145, PC3 (all purchased from ATCC), and PNT2 (Sigma Aldrich, MO), were cultured under condition as recommended. CWR-R1 cell (40) and LNCaP derived C4-2, C4-2B cells were cultured in RPMI1640 medium containing 10% FBS.

LNCaP cells [3] = test: Flow cytometric analysis of DNA content (sub-G1, apoptosis) in LNCaP cells; format: cell-based, human; conditions: 50 μM, 3 days; mock 11.9%
Procedure: as §1
(§2) Total cell lysates were obtained by lysing the cell with buffer (50 mM Tris-HCl pH7.5, 150 mM NaCl, 0.5% Triton X-100, 10% glycerol, 1 mM EDTA, protease inhibitors) for 15 min on ice, followed by 10 min of sonication cycle (30 sec on, 30 sec off) on ice. The level of total histone H3 and trimethylated histone H3 Lys9 was analyzed by western blotting using anti-histone H3 and anti-H3K9me3 antibodies (Abcam, MA). Cells treated with mock and the inhibitor were harvested and fixed by 70% ethanol for >4 hours at −20° C., followed by propidium iodide (Sigma Aldrich) staining. The DNA content was analyzed by Becton Dickinson FACScan flow cytometry, and the sub-G1 population was quantified by WinMDI 2.9.

H3K9me3 in LNCaP cells = test: Cellular level of H3K9me3 in LNCaP cells, immunoblotting; format: cell-based, human
Procedure: as §1, §2

LNCaP cells [4] = test: Microarray gene expression analysis of treated LNCaP cells; format: cell-based, human; conditions: 3 days
Procedure: LNCaP cells treated with mock and the 1,5-bis[(E)-2-(3,4-dichlorophenyl) ethenyl]-2,4-dinitrobenzene inhibitor for 3 days were harvested and the total RNA was extracted using Trizol reagent (Life Technologies, NY). Microarray analysis was performed by the University of California Davis Cancer Center Gene Expression Resource, using Affymetrix Human Genome U133A (HG-U133A) GeneChip arrays (Affymetrix, CA), which permit expression analysis of the entire Genbank RefSeq database. Array scanning and generation of raw signal data files were done with GeneChip Operating Software (Affymetrix). Subsequent data analysis was done by GeneSpring (Agilent Technologies, CA) and DAVID Bioinformatic Resources 6.7 (NIH).

KDM4A/KDM4B [5] = conditions: calf thymus histones as substrate

In the case of `O=C(O)c1ccc(O)c2ncccc12` [5-carboxy-8HQ], the IC50 (HeLa cells) is listed as 86.5 µM.

In the case of `CCCCCC/C(C)=N/Nc1ccc([N+](=O)[O-])cc1[N+](=O)[O-]` [NSC1018], the “Demethylase Residual Activity (%)” value (KDM4A) is reported as 85%, the “Demethylase Residual Activity (%)” value (KDM4B) is reported as 62% and the “FDH Residual Activity (%)” value [1] is reported as greater than 80%.

With `C/C(=N/Nc1ccc([N+](=O)[O-])cc1[N+](=O)[O-])c1ccccc1` [NSC6129] the “Demethylase Residual Activity (%)” value (KDM4A) was 100%, the “Demethylase Residual Activity (%)” value (KDM4B) was 52% and the “FDH Residual Activity (%)” value [1] was greater than 80%.

With `O=C1C=Cc2ccccc2/C1=N/Nc1ccc([N+](=O)[O-])cc1[N+](=O)[O-]` [NSC15975] the “Demethylase Residual Activity (%)” value (KDM4A) was 73%, the “Demethylase Residual Activity (%)” value (KDM4B) was 90% and the “FDH Residual Activity (%)” value [1] was greater than 80%.

In the case of `O=C(O)c1ccc(C(=O)c2ccccc2C(=O)O)cc1C(=O)O` [NSC28620], the “FDH Residual Activity (%)” value [1] is reported as greater than 80% and the “inhibitory effect on KDM4A/KDM4B (in words)” value (KDM4A/KDM4B [2]) is reported as “completely lost the inhibitory effects”.

For `COC1CC(OC(=O)c2ccc([N+](=O)[O-])cc2)C(OC(=O)c2ccc([N+](=O)[O-])cc2)C(C)O1` (stereo not shown) [NSC107408], the “Demethylase Residual Activity (%)” value (KDM4A) was 99%, the “Demethylase Residual Activity (%)” value (KDM4B) was 64% and the “FDH Residual Activity (%)” value [1] was greater than 80%. The “inhibitory effect on KDM4A/KDM4B (in words)” value (KDM4A/KDM4B [2]) was “no inhibition”.

For `O=C1C=CC=C/C1=C\Nc1cc(C(=O)O)cc(C(=O)O)c1` [NSC124029], the “Demethylase Residual Activity (%)” value (KDM4A) was 93%, the “Demethylase Residual Activity (%)” value (KDM4B) was 62% and the “FDH Residual Activity (%)” value [1] was 97%.

In the case of `O=[N+]([O-])c1cc([N+](=O)[O-])c(/C=C/c2ccc(Cl)c(Cl)c2)cc1/C=C/c1ccc(Cl)c(Cl)c1` [NSC636819], the inhibitory mode (KDM4A; against H33-17K9me3) is reported as “competitive”, the “FDH Residual Activity (%)” value [1] is reported as greater than 80% and the IC50 at 3 days (in vitro) is reported as 21.2 µM. The “apoptotic LNCaP cells” value (LNCaP cells [3]) was 39.5%, the “demethylating activity toward H3K9me3 in cells” value (H3K9me3 in LNCaP cells; 5 μM) was “essentially completely blocked” and the “cellular level of H3K9me3” value (H3K9me3 in LNCaP cells; 24 hr, dose-dependent) was “notable increase”. The “expression of oncogenes IGF1R, FGFR3, CCNE2, AURKA and AURKB” value (LNCaP cells [4]) was “down-regulation”, the “expression of tumour suppressors RB1, CDH1” value (LNCaP cells [4]) was “up-regulation” and the “portion of the altered genes found to be androgen responsive genes” value (LNCaP cells [4]; ≥two-fold alterations, 178/656) was 27%.

For `COC(=O)C(C(=O)C(=O)Nc1ccc([N+](=O)[O-])cc1[N+](=O)[O-])c1nc2ccc(Cl)cc2[nH]c1=O` (stereo not shown) [NSC640999], the “Demethylase Residual Activity (%)” value (KDM4A) was 77%, the “Demethylase Residual Activity (%)” value (KDM4B) was 49% and the “FDH Residual Activity (%)” value [1] was greater than 80%.

For `C/C(CC(O)(C(F)(F)F)C(F)(F)F)=N/Nc1ccc([N+](=O)[O-])cc1[N+](=O)[O-]` [NSC659196], the “Demethylase Residual Activity (%)” value (KDM4A) was 92%, the “Demethylase Residual Activity (%)” value (KDM4B) was 56% and the “FDH Residual Activity (%)” value [1] was greater than 80%.

For `O=C(O)c1ccnc(C(=O)O)c1` [PD2, pyridine 2,4-dicarboxylic acids, reference compound], the “Demethylase Residual Activity (%)” value (KDM4A) was 21%, the “Demethylase Residual Activity (%)” value (KDM4B) was 24% and the “demethylation activity on histones (H3K9me3, H3K36me3 western blot)” value (KDM4A/KDM4B [5]) was “blocked the demethylation activity”.
